Experimental data taken from PubChem BioAssay AID192 (DTP/NCI, 2004).
“And” between values parts separate entries of the source, which are not always exact repeats. Equal entries are not always repeated. Toxic doses and inconclusive results are not listed.

System: BDF1 mice, B16 melanoma ip, median survival T/C
Test: NCI In Vivo Anticancer Drug Screen. Data for tumor model B16 Melanoma (intraperitoneal) in B6D2F1 (BDF1) mice
Settings: endpoint: median survival time, higher = longer survival
Summary of the method: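 Read-out: survival or tumor size, given as treated/control ratio. Controls received vehicle only; animals bore transplantable tumors.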

[1] = dose: 25.0 mg/kg/injection, schedule: Q01DX009 (ip), vehicle: Klucel (hydroxypropylcellulose) (HPC)
[2] = dose: 50.0 mg/kg/injection, schedule: Q01DX009 (ip), vehicle: Klucel (hydroxypropylcellulose) (HPC)
[3] = dose: 100.0 mg/kg/injection, schedule: Q01DX009 (ip), vehicle: Klucel (hydroxypropylcellulose) (HPC)
[4] = dose: 200.0 mg/kg/injection, schedule: Q01DX009 (ip), vehicle: Klucel (hydroxypropylcellulose) (HPC)
[5] = dose: 400.0 mg/kg/injection, schedule: Q01DX009 (ip), vehicle: Klucel (hydroxypropylcellulose) (HPC)
[6] = dose: 3.12 mg/kg/injection, schedule: Q01DX009 (ip), vehicle: saline
[7] = dose: 12.5 mg/kg/injection, schedule: Q01DX009 (ip), vehicle: saline
[8] = dose: 25.0 mg/kg/injection, schedule: Q01DX009 (ip), vehicle: saline

CN1c2c(nc(N)[nH]c2=O)NCC1CCNc1ccc(C(=O)NC(CCC(=O)O)C(=O)O)cc1 (stereo unspecified)
T/C [1]: 106 % of control
T/C [2]: 103 % of control
T/C (dose: 50.0 mg/kg/injection, schedule: Q01DX009 (ip), vehicle: sodium bicarbonate): 100 % of control
T/C [3]: 106 % of control
T/C (dose: 100.0 mg/kg/injection, schedule: Q01DX009 (ip), vehicle: sodium bicarbonate): 100 % of control
T/C (dose: 200.0 mg/kg/injection, schedule: Q01DX009 (ip), vehicle: sodium bicarbonate): 95 % of control
T/C (dose: 400.0 mg/kg/injection, schedule: Q01DX009 (ip), vehicle: sodium bicarbonate): 118 % of control

S=C(N=Nc1ccccc1)NNc1ccccc1
T/C (dose: 18.8 mg/kg/injection, schedule: Q04DX003 (ip), vehicle: saline with Tween-80): 102 % of control
T/C (dose: 18.9 mg/kg/injection, schedule: Q01DX009 (ip), vehicle: saline with Tween-80): 88 % of control
T/C (dose: 37.5 mg/kg/injection, schedule: Q01DX009 (ip), vehicle: saline with Tween-80): 93 % of control
T/C (dose: 37.5 mg/kg/injection, schedule: Q04DX003 (ip), vehicle: saline with Tween-80): 92 % of control
T/C (dose: 75.0 mg/kg/injection, schedule: Q04DX003 (ip), vehicle: saline with Tween-80): 92 % of control
T/C (dose: 150.0 mg/kg/injection, schedule: Q04DX003 (ip), vehicle: saline with Tween-80): 97 % of control

Fc1cccc(/C=C2/c3cc(Cl)ccc3-c3c(Cl)cc(Cl)cc32)c1
T/C (dose: 6.25 mg/kg/injection, schedule: Q01DX009 (ip), vehicle: saline with Tween-80): 90 % of control
T/C (dose: 12.5 mg/kg/injection, schedule: Q01DX009 (ip), vehicle: saline with Tween-80): 93 % of control
T/C (dose: 25.0 mg/kg/injection, schedule: Q01DX009 (ip), vehicle: saline with Tween-80): 88 % of control

COC(=O)C12Oc3ccc(-c4ccc5c(c4O)C(=O)C4=CCC(C)C(O)C4(C(=O)OC)O5)c(O)c3C(=O)C1=CCC(C)C2O (stereo unspecified)
T/C (dose: 2.5 mg/kg/injection, schedule: Q01DX009 (ip), vehicle: saline with Tween-80): 97 % of control
T/C (dose: 5.0 mg/kg/injection, schedule: Q01DX009 (ip), vehicle: saline with Tween-80): 86 % of control and 98 % of control
T/C (dose: 10.0 mg/kg/injection, schedule: Q01DX009 (ip), vehicle: saline with Tween-80): 88 % of control and 98 % of control

COc1ccc(NC(=O)Oc2ccc(OC)cc2)cc1
T/C [3]: 90 % of control
T/C [4]: 93 % of control
T/C [5]: 93 % of control

CC1=[N+](C)C(C)(C)CC(C)O1 (stereo unspecified)
T/C [6]: 91 % of control
T/C (dose: 6.25 mg/kg/injection, schedule: Q01DX009 (ip), vehicle: saline): 104 % of control
T/C [7]: 104 % of control
T/C [8]: 91 % of control

CCOC(=O)C[Si](C)(C)C
T/C [1]: 102 % of control
T/C [2]: 108 % of control
T/C [3]: 86 % of control
T/C [4]: 107 % of control
T/C [5]: 97 % of control

NC(Cn1cc(N(CCCl)CCCl)c(=O)[nH]c1=O)C(=O)O (stereo unspecified)
T/C (dose: 6.0 mg/kg/injection, schedule: Q01DX009 (ip), vehicle: saline): 104 % of control
T/C (dose: 12.0 mg/kg/injection, schedule: Q01DX009 (ip), vehicle: saline): 115 % of control

O=C(O)c1cccc2[nH]c(=O)oc(=O)c12
T/C (dose: 100.0 mg/kg/injection, schedule: Q01DX009 (ip), vehicle: saline with Tween-80): 89 % of control
T/C (dose: 200.0 mg/kg/injection, schedule: Q01DX009 (ip), vehicle: saline with Tween-80): 91 % of control

ClCCCN1CCCCC1CCl (stereo unspecified)
T/C [6]: 111 % of control
T/C (dose: 3.12 mg/kg/injection, schedule: Q04DX003 (ip), vehicle: saline): 105 % of control
T/C (dose: 6.25 mg/kg/injection, schedule: Q04DX003 (ip), vehicle: saline): 116 % of control
T/C (dose: 8.33 mg/kg/injection, schedule: Q01DX009 (ip), vehicle: water): 155 % of control and 159 % of control
T/C [7]: 176 % of control
T/C (dose: 12.5 mg/kg/injection, schedule: Q01DX009 (ip), vehicle: water): 185 % of control and 192 % of control

CCCCCCCCCCCC[N+](C)(C)C (tested in a mixture with another compound)
T/C (dose: 3.5 mg/kg/injection, schedule: Q01DX009 (ip), vehicle: saline): 98 % of control
T/C (dose: 7.0 mg/kg/injection, schedule: Q01DX009 (ip), vehicle: saline): 86 % of control
T/C (dose: 14.0 mg/kg/injection, schedule: Q01DX009 (ip), vehicle: saline): 90 % of control

Cc1ccc2nc(-c3cc(Br)ccc3O)c(-c3cc(Br)ccc3O)nc2c1
T/C [3]: 90 % of control
T/C [4]: 88 % of control

O=C1NC2(CCCCC2)NC12CCCCC2
T/C [8]: 102 % of control
T/C (dose: 50.0 mg/kg/injection, schedule: Q01DX009 (ip), vehicle: saline): 97 % of control
T/C (dose: 100.0 mg/kg/injection, schedule: Q01DX009 (ip), vehicle: saline): 97 % of control
T/C (dose: 150.0 mg/kg/injection, schedule: Q01DX009 (ip), vehicle: saline): 94 % of control
T/C (dose: 225.0 mg/kg/injection, schedule: Q01DX009 (ip), vehicle: saline): 86 % of control
